# Data published in US8618054B2, “Interleukin-1 receptor antagonists, compositions, and methods of treatment” (Valorisation-Rechereche Société en Commandite, priority 2004, dated 2013).
# Marks after values point to notes of the source that are not given here. Where a SMILES comes first, the peptide text is derived from it.
# What was measured:
# IL-1R/IL-1RacP receptor [1] = molecular target: T1, IL-1R/IL-1RacP receptor (Homo sapiens, UniProt P14778); assay: IL-1-induced PGE2 synthesis in human chondrocytes; assay type: cell-based; set-up: endogenous in cells; conditions: alanine scan peptides 10^−6M
# T1 sequence (P14778 18-569): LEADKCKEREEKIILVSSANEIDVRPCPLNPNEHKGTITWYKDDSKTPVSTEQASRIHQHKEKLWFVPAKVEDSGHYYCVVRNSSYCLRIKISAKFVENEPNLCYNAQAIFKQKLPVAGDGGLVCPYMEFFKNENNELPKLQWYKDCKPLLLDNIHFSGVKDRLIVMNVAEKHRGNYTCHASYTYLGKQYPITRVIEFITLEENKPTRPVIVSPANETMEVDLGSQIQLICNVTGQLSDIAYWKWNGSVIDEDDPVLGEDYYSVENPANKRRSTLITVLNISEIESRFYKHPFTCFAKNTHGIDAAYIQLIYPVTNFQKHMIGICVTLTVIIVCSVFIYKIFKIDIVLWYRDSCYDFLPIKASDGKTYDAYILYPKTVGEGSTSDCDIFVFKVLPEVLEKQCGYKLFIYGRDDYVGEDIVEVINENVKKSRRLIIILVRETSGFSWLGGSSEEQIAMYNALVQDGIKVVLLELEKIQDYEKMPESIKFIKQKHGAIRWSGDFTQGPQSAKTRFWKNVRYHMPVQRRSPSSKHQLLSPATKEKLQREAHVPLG
# Procedure: (§1) It is well known in the art that IL-1 induces the synthesis of prostaglandin E2 (PGE2) in endothelial cells and/or chondrocytes in vitro. Therefore, human chondrocytes and piglet brain microvascular endothelial cells were pre-incubated 45-60 minutes at 37° C. with peptide API-101 (^10−6M) and human IL-1 (10 ng/ml) was added in the growing medium. After 24 hours of incubation, growth medium was collected and evaporated. PGE2 measurement was determined by RIA assay with a commercial kit (Cederlane).
# IL-1R/IL-1RacP receptor [2] = assay: Ex vivo vasomotricity: reversal of IL-1β-induced vasodilation of piglet pial vessels; conditions: IL-1β 75 ng/ml
# Procedure: Ex vivo vasomotor response on brain vessels was performed as described (Li et al., 1996; Hou et al., 2000; Hou et al., 2001; Hou et al., 2003). Brains were removed from Yorkshire piglets. Slices of cortex exposing the pial vessels were pinned to a wax base of a 20 ml bath containing Krebs buffer (pH 7.4) equilibrated with 95% O2, 5% CO2 and maintained at 37° C. Microvessels were visualized and recorded using a video camera mounted on a dissecting microscope. Vascular diameter was measured using a digital image analyzer. Vascular diameter was recorded before and after topical application of pre-constricting agent, U46619 (10^−7 M). After stabilization of preparation, the ligand (IL-1β, 75 ng/ml) was added until stable vasodilation was detected. Peptides were subsequently added at different concentrations from 10^−10 to 10^−5 M. Reversal of vasodilatation was visualized and measured as previously described (Hou, et al. 2000; Hou et al. 2001; Hou et al. 2003); triplicate measurements were conducted on 2 animals.
# IL-1R/IL-1RacP receptor [3] = molecular target: T2, IL-1R/IL-1RacP receptor (Sus scrofa, UniProt A0A5G2QSI4); assay: IL-1-induced PGE2 synthesis in piglet brain microvascular endothelial cells; assay type: cell-based, porcine; conditions: endothelial cells; for inhibition of IL-1-induced PGE2 synthesis, compared with parent API-101: alanine scan peptides 10^−6M
# T2 construct: endogenous in cells; host or cells: piglet brain microvascular endothelial cells
# T2 sequence (A0A5G2QSI4 21-572): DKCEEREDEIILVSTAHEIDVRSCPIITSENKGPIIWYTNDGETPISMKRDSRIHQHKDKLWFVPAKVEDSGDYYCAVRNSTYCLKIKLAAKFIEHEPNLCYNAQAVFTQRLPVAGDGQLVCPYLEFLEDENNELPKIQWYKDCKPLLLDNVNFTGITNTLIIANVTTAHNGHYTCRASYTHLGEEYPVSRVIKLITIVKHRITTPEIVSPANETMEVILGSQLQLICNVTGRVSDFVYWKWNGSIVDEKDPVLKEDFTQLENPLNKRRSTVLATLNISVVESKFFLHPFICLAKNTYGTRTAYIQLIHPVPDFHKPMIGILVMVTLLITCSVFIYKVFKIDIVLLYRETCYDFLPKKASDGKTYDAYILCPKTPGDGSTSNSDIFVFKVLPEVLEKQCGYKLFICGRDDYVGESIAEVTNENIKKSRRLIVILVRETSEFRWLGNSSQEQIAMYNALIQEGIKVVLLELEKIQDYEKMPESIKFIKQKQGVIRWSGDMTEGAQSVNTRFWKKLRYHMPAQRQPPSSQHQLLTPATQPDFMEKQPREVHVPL
# Procedure: as §1
# [4] = TNBS-induced inflammatory bowel disease rat model, Example 6 (48 h; MPO, macroscopic, histologic); assay type: in vivo; set-up: macroscopic evaluation (median score): scale not given here
# Procedure: Colon inflammation was induced by intra-rectal/colon administration of the hapten trinitrobenzene sulphonic acid (TNBS) on male Sprague-Dawley rats (175-200 g) (Bouma, Nature Rev, 2003; Morris, Gastroenterology, 1989). Animals were anesthetized with isoflurane and TNBS dissolved in 50% ethanol (vol/vol). 120 mg/ml (TNBS) was administered into the colon (total volume of 0.25 ml per rat) using a polyethylene tube (PE50). The cannula was inserted at 8 cm from the anus and kept in place for at least 15 min after TNBS administration in order to prevent expulsion of the solution. […] A third group (control) was not injected with TNBS. Six days after administration of TNBS, rats were killed by CO2 inhalation. Day 6 was chosen as an endpoint because by day 7 spontaneous tissue regeneration begins and this can mask the therapeutic effect of the tested peptide or peptide derivative. Colon was removed and examined macroscopically (adhesions, ulcerations, discoloration and bleeding) and histologically (neutrophil infiltration, epithelial injury, crypt distortion and ulcerations) (Anthony et al. 1995; Padol et al. 2000; Dieleman, L A, et al. 1997; Torres M I et al. 1999). Two animals per group were studied.
# Colon inflammation was induced by intra-rectal/colon administration of the hapten trinitrobenzene sulphonic acid (TNBS) as described in Example 4. Two hours prior to TNBS administration, peptides, peptidomimetics or 0.9% saline were administered intravenously (iv) via the caudal vein (various concentrations of mg/kg/d) (total volume of 0.3 ml). […] A third group (control) was not injected with TNBS. […] Also, these IL-1R antagonists were given twice a day (BID); Remicade® (anti-TNFα) (10 mg/kg) and dexamethasone (0.75 mg/kg) were administered intraperitoneally but only once a day (qd). The intrarectal administration (ir) of 101.10, 101.113 (1 and 2.5 mg/kg), and 5-ASA (50 mg/kg) was done one hour after TNBS administration, and twice a day, except for 5-ASA which is once a day. Finally, 101.10 (1-5 mg/kg) was also administered orally by gavage (po), twice a day. Forty-eight hours after administration of TNBS, rats were killed by CO2 inhalation. Colon was removed and assessed macroscopically (adhesions, ulcerations, discoloration and bleeding) and histologically (neutrophil infiltration, epithelial injury, crypt distortion and ulcerations). One to seven animals per group were studied, according to treatments. Myeloperoxidase (MPO) activity was measured on tissue lysates.
# IL-1R/IL-1RacP receptor [5] = assay: IL-1-induced PGE2 synthesis in piglet brain microvascular endothelial cells; assay type: cell-based, porcine; conditions: for potency and efficacy, IL-1-induced PGE2 synthesis: truncated derivatives, FIG. 18 (WI-38 and endothelial cells)
# Procedure: as §1
# IL-1R/IL-1RacP receptor [6] = molecular target: T3, IL-1R/IL-1RacP receptor (Rattus norvegicus, UniProt Q02955); assay: IL-1β-induced systemic hypotension in rats; assay type: in vivo; conditions: jugular injection
# T3 construct: from tissue; host or cells: whole animal, Sprague-Dawley rat
# T3 sequence (Q02955 20-576): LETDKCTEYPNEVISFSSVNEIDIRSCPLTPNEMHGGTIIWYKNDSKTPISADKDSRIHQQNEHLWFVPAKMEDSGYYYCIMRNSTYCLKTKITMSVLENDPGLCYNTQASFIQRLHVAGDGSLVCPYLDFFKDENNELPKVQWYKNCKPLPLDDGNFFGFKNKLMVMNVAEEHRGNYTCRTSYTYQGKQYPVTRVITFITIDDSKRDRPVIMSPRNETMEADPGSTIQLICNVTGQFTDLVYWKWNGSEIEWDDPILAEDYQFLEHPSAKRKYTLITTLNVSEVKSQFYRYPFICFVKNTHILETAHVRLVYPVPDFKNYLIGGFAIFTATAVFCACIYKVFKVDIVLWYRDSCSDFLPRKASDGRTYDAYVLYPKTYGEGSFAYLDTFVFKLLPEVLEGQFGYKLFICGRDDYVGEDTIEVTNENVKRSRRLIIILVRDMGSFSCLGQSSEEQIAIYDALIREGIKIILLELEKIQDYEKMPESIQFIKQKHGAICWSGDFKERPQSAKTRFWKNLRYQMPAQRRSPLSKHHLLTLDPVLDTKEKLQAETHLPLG
# Procedure: The API-101 derivatives, API-101.10 (SEQ ID NO: 10) (and others) were tested to assess whether they could reverse the physiological actions of the natural ligand in vivo by injecting the derivative through the jugular or directly into the stomach (to verify the stability of the peptide through the digestive tract). Sprague-Dawley rats (300 g) were anesthetized with isoflurane (2.5-4%). The natural ligand (IL-1β) or vehicle (saline) was injected through the jugular vein (5 μg/kg). Blood was taken from the carotid artery for subsequent PGE2 measurements before and 10 min after each injection. Peptides were administered (dosage based on IC50 values and a volume of distribution equivalent to the extracellular space) either in the jugular vein or directly in the stomach (5 times dose used intravenously, (iv)). Arterial blood pressure and heart rate were continuously monitored (Gould) while temperature and blood gases (Radiometer) were measured for routine analysis as previously described (Li et al. 1997; Hardy et al. 1999; Najarian et al. 2000). Experiments were repeated 3 times.
# IL-1R = molecular target: T4, IL-1R (Homo sapiens, UniProt P14778); assay: Characterization of peptidomimetics (FIGS. 26, 29, 30; assay not stated); conditions: FIG. 26
# T4 sequence (P14778 18-569): T1 sequence (P14778 18-569)
# [7] = Continuous infusion (ip), 0.5 mg/kg/d
# [8] = Intermittent injection ip, 0.2-BID mg/kg/d
molecule,measurement,setting,value
APRYTVALA [API-101.6],"inhibition of IL-1-induced PGE2 synthesis, compared with parent API-101",IL-1R/IL-1RacP receptor [1],lost almost all activity
same,reversal of IL-1β-induced vasodilation,IL-1R/IL-1RacP receptor [2],reversed the vasodilation
same,"inhibition of IL-1-induced PGE2 synthesis, compared with parent API-101",IL-1R/IL-1RacP receptor [3],lost almost all activity
"CC(C)C[C@@H](NC(=O)[C@@H](CCC(=O)O)NC(=O)[C@H]1CCCN1C(=O)[C@H](NC(=O)[C@@H](Cc1ccc(O)cc1)NC(=O)[C@H](N)CCCNC(=N)N)[C@H](C)O)C(=O)N[C@H](C)C(N)=O [API-101.107, RYTPELA] (HELM PEPTIDE1{[dR].[dY].[dT].[dP].[dE].[dL].[dA].[am]}$$$$V2.0; C-terminus assumed)",MPO (% of TNBS + Saline),[4]; [7],37 % of TNBS + Saline
same,histologic evaluation (median score),[4]; [7],1.5
same,MPO (% of TNBS + Saline),[4]; [8],112 % of TNBS + Saline
same,histologic evaluation (median score),[4]; [8],2.5
same,macroscopic evaluation (median score),[4]; [8],1.37^†
same,"reduction in MPO activity, macroscopic and histologic score, compared with Kineret",[4]; intraperitoneal osmotic pumps (continuous infusion),superior or equivalent in efficacy to Kineret
same,IC50,"IL-1R/IL-1RacP receptor [5]; FIG. 15, cell type not stated",1.2 pM
YTVELA [API-101.11],"potency and efficacy, IL-1-induced PGE2 synthesis",IL-1R/IL-1RacP receptor [5],decrease in potency and efficacy
AARYTVELA [API-101.1],"inhibition of IL-1-induced PGE2 synthesis, compared with parent API-101",IL-1R/IL-1RacP receptor [1],slightly improved efficacy
same,reversal of IL-1β-induced vasodilation,IL-1R/IL-1RacP receptor [2],reversed the vasodilation
same,vasodilation abolished,IL-1R/IL-1RacP receptor [2],70%
same,"inhibition of IL-1-induced PGE2 synthesis, compared with parent API-101",IL-1R/IL-1RacP receptor [3],slightly improved efficacy
PRYTVELA [API-101.9],"prevention of IL-1β-induced hypotension, in words",IL-1R/IL-1RacP receptor [6],less effective
"CC(C)C[C@@H](NC(=O)[C@@H](CCC(=O)O)NC(=O)[C@H]1CC[C@H]2CC[C@@H](NC(=O)[C@@H](Cc3ccc(O)cc3)NC(=O)[C@H](N)CCCNC(=N)N)C(=O)N21)C(=O)N[C@H](C)C(N)=O [API-101.110, RY(I^2aa)ELA]",IC50,IL-1R,10 pM
same,efficacy compared with API-101.107,IL-1R/IL-1RacP receptor [3],twice the efficacy
same,"potency, fold higher than API-101.107",IL-1R/IL-1RacP receptor [3],10 fold
APRATVELA [API-101.3],reversal of IL-1β-induced vasodilation,IL-1R/IL-1RacP receptor [2],reversed the vasodilation
TVELA [API-101.12],"potency and efficacy, IL-1-induced PGE2 synthesis",IL-1R/IL-1RacP receptor [5],decrease in potency and efficacy
